Target: MASP-2 CCP2-SP (Homo sapiens (Human), UniProt O00187)
Assay: MASP-2 co-crystallization, X-ray crystallography and structure analysis (H-bonds, van der Waals contacts);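 on Ligand-pharmacophore element distance, pharmacophore element C2: distance from averaged pharmacophore element to bound ligand; missing value means element absent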;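 on Ligand-pharmacophore element distance, pharmacophore element C3: distance from averaged pharmacophore element to bound ligand; missing value means element absent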;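 on Ligand-pharmacophore element distance, pharmacophore element C4: distance from averaged pharmacophore element to bound ligand; missing value means element absent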;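 on Ligand-pharmacophore element distance, pharmacophore element C5: distance from averaged pharmacophore element to bound ligand; missing value means element absent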
Set-up: van der Waals contact distance, MASP-2 HIS 483 atom CD2 / van der Waals contact distance, MASP-2 HIS 483 atom NE2 / van der Waals contact distance, SER 654 C to compound atom / van der Waals contact distance, SER 654 O to compound atom / van der Waals contact distance, TRP 655 C to compound atom / van der Waals contact distance, MASP-2 GLY 528 atom CA / van der Waals contact distance TRP 655 atom CZ3 / van der Waals contact distance TRP 655 atom N / van der Waals contact distance TRP 655 atom CE3 / van der Waals contact distance GLY 656 atom C / van der Waals contact distance GLY 656 atom CA / van der Waals contact distance GLY 656 atom O / van der Waals contact distance, MASP-2 TYR 607 atom CD1 / van der Waals contact distance, MASP-2 PRO 606 atom O / d(C3,CA1) / d(CA1,N1)2 / d(H4,O1) / d(H4,O2) / d(O1,O2) / d(CA1,O2) / d(CA6,O1) / d(CA6,O2) / d(CA1,C5) / d(O2,H3) / d(N2,C2) / d(CA5,N2) / d(N2,C4) / d(N2,C6) / d(N2,CA3) / d(N2,O3) / d(O4,H2): unit not given beside the values
Settings: for Ligand-pharmacophore element distance, pharmacophore element C2 / Ligand-pharmacophore element distance, pharmacophore element C3 / Ligand-pharmacophore element distance, pharmacophore element C4 / Ligand-pharmacophore element distance, pharmacophore element C5 / Ligand-pharmacophore element distance, pharmacophore element C6 / Ligand-pharmacophore element distance, pharmacophore element C7 / Ligand-pharmacophore element distance, pharmacophore element CA1 / Ligand-pharmacophore element distance, pharmacophore element CA2 / Ligand-pharmacophore element distance, pharmacophore element CA3 / Ligand-pharmacophore element distance, pharmacophore element CA4 / Ligand-pharmacophore element distance, pharmacophore element CA5 / Ligand-pharmacophore element distance, pharmacophore element CA6: Table A4-1; for d(CA1,C5) / d(CA1,O1) / d(CA1,O2) / d(CA1,O4) / d(H4,O1) / d(H4,O2) / d(O1,O2) / d(O4,H2): Table A5-1 pharmacophore: distance between elements, S2/S1 region; for d(N2,C2) / d(N2,CA2) / d(O2,H3) / d(O2,N2): Table A5-2 pharmacophore distance, S3/S4 region; for a(C5, CA1, O1) / a(CA1, O1, O2) / a(CA1, O4, H2) / a(O1, CA1, O4) / a(O1, O2, H4): Table A6-1 pharmacophore angle; for a(O1, O2, H3) / a(O1, O2, N2) / a(O2, N2, C2) / a(O2, N2, CA2): Table A6-2 pharmacophore angle; for Pharmacophore torsion angle a(C5, CA1, O1, H4) / Pharmacophore torsion angle a(H4, O1, O2, H3) / Pharmacophore torsion angle a(H4, O1, O2, N2) / Pharmacophore torsion angle a(O1, H4, O2, CA1) / Pharmacophore torsion angle a(O1, O2, N2, C2): Table A7-1; for Pharmacophore torsion angle a(C5, CA1, O1, H4) / Pharmacophore torsion angle a(H4, O1, O2, H3) / Pharmacophore torsion angle a(H4, O1, O2, N2) / Pharmacophore torsion angle a(O1, H4, O2, CA1) / Pharmacophore torsion angle a(O1, O2, N2, C2) / Pharmacophore torsion angle a(O1, O2, N2, CA2): between pharmacophore elements of the bound compound; for Pharmacophore torsion angle a(O1, O2, N2, CA2): Table A7-2
From the text: This example illustrates the preparation of recombinant MASP-2 protein, based on UniProt O00187, human mannan-binding lectin serine protease 2. Expression constructs for human MASP-2 CCP2-SP and CCP2-SP-6HIS were generated for recombinant expression in E. coli cells.
Typically, crystallization hits were obtained by screening against […] 96-well crystallization reagent kits (GRAS6, GRAS2, Hampton Research; MORPHEUS, Molecular Dimensions; Wizard 1&2 Cryo, Rigaku Reagents) and crystal growth was inspected by optical microscopy. Crystals were used directly or further optimized for X-ray diffraction. Crystals were captured with cryogenic loops and dipped into liquid nitrogen directly or cryoprotected with a 20% glycerol in crystallization formulation before flash-cooling in liquid nitrogen.
Thereafter crystals are transferred once or twice for soaking within the crystallization solution containing the MASP-2 inhibitor.
Crystals were diffracted with synchrotron X-rays of […] and X-ray diffraction datasets were collected at beamlines SSRL BL9-2, BL14-1, BL12-2 as well as ALS sector 5 using Dectris Pilatus and Eiger detectors. Structures were determined by molecular replacement using portions of the structure 1Q3X as search models and partially refined with Buster 2.10.2 or Refmac 5.8. […] When multiple ligand poses were observed, for instance arising from multiple molecules in the asymmetric unit or refined dual poses within the same molecule, only one pose was selected and analyzed.
LigPlot+ calls these ‘nonbonded contacts’ or ‘hydrophobic contacts’. Despite the name, there are atom pairings that include possible H-bonds. Thus, in some instances, the Table A2 also contains H-bond interactions.

MASP-2 CCP2-SP, sequence (O00187 445-686): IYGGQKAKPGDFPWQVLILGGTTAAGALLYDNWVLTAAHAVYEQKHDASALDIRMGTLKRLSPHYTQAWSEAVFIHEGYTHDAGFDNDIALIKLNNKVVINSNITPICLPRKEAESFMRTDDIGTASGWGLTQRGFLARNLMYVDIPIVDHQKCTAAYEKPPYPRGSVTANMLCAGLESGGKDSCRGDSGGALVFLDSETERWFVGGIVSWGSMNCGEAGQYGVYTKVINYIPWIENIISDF
MASP-2 CCP2-SP, sequence (O00187 364-432 partner): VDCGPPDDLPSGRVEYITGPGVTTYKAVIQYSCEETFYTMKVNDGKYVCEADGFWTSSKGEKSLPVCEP

| Structure (SMILES) | Ligand-pharmacophore element distance, pharmacophore element C2 | Ligand-pharmacophore element distance, pharmacophore element C3 | Ligand-pharmacophore element distance, pharmacophore element C4 | Ligand-pharmacophore element distance, pharmacophore element C5 | Ligand-pharmacophore element distance, pharmacophore element C6 | Ligand-pharmacophore element distance, pharmacophore element C7 | Ligand-pharmacophore element distance, pharmacophore element CA1 | Ligand-pharmacophore element distance, pharmacophore element CA2 | Ligand-pharmacophore element distance, pharmacophore element CA3 | Ligand-pharmacophore element distance, pharmacophore element CA4 | Ligand-pharmacophore element distance, pharmacophore element CA5 | Ligand-pharmacophore element distance, pharmacophore element CA6 | d(CA1,C5) | d(CA1,O1) | d(CA1,O2) | d(CA1,O4) | d(H4,O1) | d(H4,O2) | d(O1,O2) | d(O4,H2) | also measured |
| --- | --- | --- | --- | --- | --- | --- | --- | --- | --- | --- | --- | --- | --- | --- | --- | --- | --- | --- | --- | --- | --- |
| C[C@H](NC(=O)[C@H]1C[C@@H](c2ccccc2)CCN1)C(=O)NCc1cc(Cl)ccc1O.Cl [1078_3] | 0.43 | 0 | 0 | 0.45 | 0 | 0 | 1.53 | 0.27 | 0 | 0 | 0 | 0 | 3.13 | 4.44 | 4.54 | 2.75 | 3.13 | 3.61 | 3.17 | 0.98 | d(N2,C2): 1.45; d(N2,CA2): 5.70; d(O2,H3): 2.05; d(O2,N2): 2.79; a(C5, CA1, O1): 162.08; a(CA1, O1, O2): 112.44; a(CA1, O4, H2): 128.44; a(O1, CA1, O4): 67.41; a(O1, O2, H4): 124.44; a(O1, O2, H3): 132.07; a(O1, O2, N2): 145.54; a(O2, N2, C2): 126.01; a(O2, N2, CA2): 154.83; Pharmacophore torsion angle a(C5, CA1, O1, H4): −5.62; Pharmacophore torsion angle a(H4, O1, O2, H3): −160.53; Pharmacophore torsion angle a(H4, O1, O2, N2): −166.69; Pharmacophore torsion angle a(O1, H4, O2, CA1): −82.33; Pharmacophore torsion angle a(O1, O2, N2, C2): 132.95; Pharmacophore torsion angle a(O1, O2, N2, CA2): 140.71 |
| C[C@H](NC(=O)[C@H]1C[C@@H](c2ccccc2)CCN1)C(=O)NCc1cc(Cl)ccc1O.Cl [1078_4] | 0.67 | 0 | 0 | 0.52 | 0 | 0 | 1.62 | 0.59 | 0 | 0 | 0 | 0 | 3.13 | 4.56 | 4.61 | 2.76 | 2.27 | 2.64 | 3.39 | 0.97 | d(N2,C2): 1.51; d(N2,CA2): 5.66; d(O2,H3): 2.72; d(O2,N2): 2.70; a(C5, CA1, O1): 161.60; a(CA1, O1, O2): 112.48; a(CA1, O4, H2): 128.57; a(O1, CA1, O4): 65.56; a(O1, O2, H4): 93.17; a(O1, O2, H3): 141.42; a(O1, O2, N2): 146.07; a(O2, N2, C2): 126.96; a(O2, N2, CA2): 155.54; Pharmacophore torsion angle a(C5, CA1, O1, H4): 32.90; Pharmacophore torsion angle a(H4, O1, O2, H3): −123.98; Pharmacophore torsion angle a(H4, O1, O2, N2): −113.42; Pharmacophore torsion angle a(O1, H4, O2, CA1): −58.33; Pharmacophore torsion angle a(O1, O2, N2, C2): 124.98; Pharmacophore torsion angle a(O1, O2, N2, CA2): 136.93 |

Reference: patent US12195427B2, “MASP-2 inhibitors and methods of use” (priority 2018, dated 2025)
